How the values were obtained:
Assay in all cases: relative viability vs DMSO control (72 h) (fraction); higher = more viable cells
HS729 = system: HS729
Method in brief: (§1)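 Relative viability was measured with ATPLite and expressed as percent growth, averaged across up to triplicate wells. Sarcoma cell lines had been seeded in 384-well plates to reach 80–90% confluence, dosed after 24 h, and incubated 72 h at 37 °C, 5% CO2. All data were rescaled on a scale where 1 is full and 0 is none.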

SW684 = system: SW684
Method in brief: as §1

SK-LMS-1 = system: SK-LMS-1
Method in brief: as §1

A204 = system: A204
Method in brief: as §1

SYO-1 = system: SYO-1
Method in brief: as §1

KHOS-NP = system: KHOS-NP
Method in brief: as §1

SW872 = system: SW872
Method in brief: as §1

SK-ES-1 = system: SK-ES-1
Method in brief: as §1

G401 = system: G401
Method in brief: as §1

VA-ES-BJ = system: VA-ES-BJ
Method in brief: as §1

RD = system: RD
Method in brief: as §1

MES-SA = system: MES-SA
Method in brief: as §1

C=CC(=O)N1CCC(CNc2ncnc(N)c2-c2ccc(Oc3ccccc3)cc2)CC1 [Evobrutinib]
Conditions	relative viability
A204, 0.00017 µM	1.1
A204, 0.00051 µM	1.16
A204, 0.00152 µM	1.16
A204, 0.00457 µM	1.11
A204, 0.01372 µM	1.02
A204, 0.04115 µM	1.05
A204, 0.1235 µM	1.07
A204, 0.3704 µM	1.04
A204, 1.111 µM	1.07
A204, 3.333 µM	1.02
A204, 10 µM	0.871
G401, 0.00017 µM	1.05
G401, 0.00051 µM	1.01
G401, 0.00152 µM	1.01
G401, 0.00457 µM	1.02
G401, 0.01372 µM	1.03
G401, 0.04115 µM	1.03
G401, 0.1235 µM	1
G401, 0.3704 µM	1.02
G401, 1.111 µM	0.982
G401, 3.333 µM	1
G401, 10 µM	0.894
HS729, 0.00017 µM	1.08
HS729, 0.00051 µM	1.09
HS729, 0.00152 µM	1.04
HS729, 0.00457 µM	1.07
HS729, 0.01372 µM	1.03
HS729, 0.04115 µM	0.991
HS729, 0.1235 µM	1.01
HS729, 0.3704 µM	1.01
HS729, 1.111 µM	0.978
HS729, 3.333 µM	0.938
HS729, 10 µM	0.862
KHOS-NP, 0.00017 µM	1.11
KHOS-NP, 0.00051 µM	1.13
KHOS-NP, 0.00152 µM	1.13
KHOS-NP, 0.00457 µM	1.13
KHOS-NP, 0.01372 µM	1.12
KHOS-NP, 0.04115 µM	1.128
KHOS-NP, 0.1235 µM	1.12
KHOS-NP, 0.3704 µM	1.12
KHOS-NP, 1.111 µM	1.12
KHOS-NP, 3.333 µM	1.12
KHOS-NP, 10 µM	1.12
MES-SA, 0.00017 µM	1
MES-SA, 0.00051 µM	0.9618
MES-SA, 0.00152 µM	0.963
MES-SA, 0.00457 µM	0.9579
MES-SA, 0.01372 µM	0.964
MES-SA, 0.04115 µM	0.956
MES-SA, 0.1235 µM	0.968
MES-SA, 0.3704 µM	0.933
MES-SA, 1.111 µM	0.928
MES-SA, 3.333 µM	0.892
MES-SA, 10 µM	0.792
RD, 0.00017 µM	1.06
RD, 0.00051 µM	1.09
RD, 0.00152 µM	1.09
RD, 0.00457 µM	1.08
RD, 0.01372 µM	1.11
RD, 0.04115 µM	1.11
RD, 0.1235 µM	1.12
RD, 0.3704 µM	1.09
RD, 1.111 µM	1.08
RD, 3.333 µM	1.07
RD, 10 µM	1.11
SK-ES-1, 0.00017 µM	1.12
SK-ES-1, 0.00051 µM	1.14
SK-ES-1, 0.00152 µM	1.1
SK-ES-1, 0.00457 µM	1.04
SK-ES-1, 0.01372 µM	1.04
SK-ES-1, 0.04115 µM	1.09
SK-ES-1, 0.1235 µM	1.05
SK-ES-1, 0.3704 µM	1.06
SK-ES-1, 1.111 µM	1.03
SK-ES-1, 3.333 µM	1.01
SK-ES-1, 10 µM	1.02
SK-LMS-1, 0.00017 µM	1.08
SK-LMS-1, 0.00051 µM	1.1
SK-LMS-1, 0.00152 µM	1.08
SK-LMS-1, 0.00457 µM	1.08
SK-LMS-1, 0.01372 µM	1.04
SK-LMS-1, 0.04115 µM	1.11
SK-LMS-1, 0.1235 µM	1.11
SK-LMS-1, 0.3704 µM	1.05
SK-LMS-1, 1.111 µM	1.08
SK-LMS-1, 3.333 µM	0.997
SK-LMS-1, 10 µM	0.981
SW684, 0.00017 µM	1.15
SW684, 0.00051 µM	1.19
SW684, 0.00152 µM	1.2
SW684, 0.00457 µM	1.22
SW684, 0.01372 µM	1.2
SW684, 0.04115 µM	1.16
SW684, 0.1235 µM	1.22
SW684, 0.3704 µM	1.18
SW684, 1.111 µM	1.19
SW684, 3.333 µM	1.19
SW684, 10 µM	1.174
SW872, 0.00017 µM	1.05
SW872, 0.00051 µM	1.056
SW872, 0.00152 µM	1.04
SW872, 0.00457 µM	1.04
SW872, 0.01372 µM	1.03
SW872, 0.04115 µM	1.03
SW872, 0.1235 µM	1.07
SW872, 0.3704 µM	1.04
SW872, 1.111 µM	1.02
SW872, 3.333 µM	1.03
SW872, 10 µM	1.01
SYO-1, 0.00017 µM	1.018
SYO-1, 0.00051 µM	1.02
SYO-1, 0.00152 µM	1.03
SYO-1, 0.00457 µM	1.02
SYO-1, 0.01372 µM	1.03
SYO-1, 0.04115 µM	0.998
SYO-1, 0.1235 µM	0.992
SYO-1, 0.3704 µM	0.994
SYO-1, 1.111 µM	0.965
SYO-1, 3.333 µM	0.953
SYO-1, 10 µM	0.894
VA-ES-BJ, 0.00017 µM	1.1
VA-ES-BJ, 0.00051 µM	1.08
VA-ES-BJ, 0.00152 µM	1.07
VA-ES-BJ, 0.00457 µM	1.08
VA-ES-BJ, 0.01372 µM	1.09
VA-ES-BJ, 0.04115 µM	1.043
VA-ES-BJ, 0.1235 µM	1.06
VA-ES-BJ, 0.3704 µM	1.06
VA-ES-BJ, 1.111 µM	1.06
VA-ES-BJ, 3.333 µM	1.1
VA-ES-BJ, 10 µM	1.1

CNC(=O)c1c(C)oc2cc(Oc3ncnc4cc(OC)c(OC)cc34)ccc12 [Fruquintinib]
Conditions	relative viability
A204, 0.00017 µM	1.06
A204, 0.00051 µM	1.09
A204, 0.00152 µM	1.05
A204, 0.00457 µM	1.05
A204, 0.01372 µM	1.06
A204, 0.04115 µM	0.999
A204, 0.1235 µM	0.967
A204, 0.3704 µM	0.73
A204, 1.111 µM	0.409
A204, 3.333 µM	0.32
A204, 10 µM	0.258
G401, 0.00017 µM	0.988
G401, 0.00051 µM	1.02
G401, 0.00152 µM	1.02
G401, 0.00457 µM	0.986
G401, 0.01372 µM	1.03
G401, 0.04115 µM	1.01
G401, 0.1235 µM	0.965
G401, 0.3704 µM	0.953
G401, 1.111 µM	0.9
G401, 3.333 µM	0.698
G401, 10 µM	0.57
HS729, 0.00017 µM	1.09
HS729, 0.00051 µM	1
HS729, 0.00152 µM	0.959
HS729, 0.00457 µM	0.961
HS729, 0.01372 µM	0.908
HS729, 0.04115 µM	0.927
HS729, 0.1235 µM	0.896
HS729, 0.3704 µM	0.852
HS729, 1.111 µM	0.794
HS729, 3.333 µM	0.717
HS729, 10 µM	0.657
KHOS-NP, 0.00017 µM	1.114
KHOS-NP, 0.00051 µM	1.11
KHOS-NP, 0.00152 µM	1.11
KHOS-NP, 0.00457 µM	1.09
KHOS-NP, 0.01372 µM	1.11
KHOS-NP, 0.04115 µM	1.099
KHOS-NP, 0.1235 µM	1.08
KHOS-NP, 0.3704 µM	1.07
KHOS-NP, 1.111 µM	1.07
KHOS-NP, 3.333 µM	1.03
KHOS-NP, 10 µM	1.027
MES-SA, 0.00017 µM	0.96
MES-SA, 0.00051 µM	0.975
MES-SA, 0.00152 µM	0.943
MES-SA, 0.00457 µM	0.935
MES-SA, 0.01372 µM	0.947
MES-SA, 0.04115 µM	0.9442
MES-SA, 0.1235 µM	0.922
MES-SA, 0.3704 µM	0.929
MES-SA, 1.111 µM	0.9218
MES-SA, 3.333 µM	0.855
MES-SA, 10 µM	0.806
RD, 0.00017 µM	1.03
RD, 0.00051 µM	1.09
RD, 0.00152 µM	1.09
RD, 0.00457 µM	1.1
RD, 0.01372 µM	1.07
RD, 0.04115 µM	1.08
RD, 0.1235 µM	1.06
RD, 0.3704 µM	1.089
RD, 1.111 µM	1.08
RD, 3.333 µM	1.08
RD, 10 µM	1.04
SK-ES-1, 0.00017 µM	1.01
SK-ES-1, 0.00051 µM	1.07
SK-ES-1, 0.00152 µM	1.04
SK-ES-1, 0.00457 µM	1.07
SK-ES-1, 0.01372 µM	1.06
SK-ES-1, 0.04115 µM	1.1
SK-ES-1, 0.1235 µM	1.05
SK-ES-1, 0.3704 µM	1
SK-ES-1, 1.111 µM	0.971
SK-ES-1, 3.333 µM	0.951
SK-ES-1, 10 µM	0.926
SK-LMS-1, 0.00017 µM	1.11
SK-LMS-1, 0.00051 µM	1.1
SK-LMS-1, 0.00152 µM	1.106
SK-LMS-1, 0.00457 µM	1.1
SK-LMS-1, 0.01372 µM	1.1
SK-LMS-1, 0.04115 µM	1.07
SK-LMS-1, 0.1235 µM	1.07
SK-LMS-1, 0.3704 µM	1.04
SK-LMS-1, 1.111 µM	1.01
SK-LMS-1, 3.333 µM	0.976
SK-LMS-1, 10 µM	0.991
SW684, 0.00017 µM	1.15
SW684, 0.00051 µM	1.12
SW684, 0.00152 µM	1.16
SW684, 0.00457 µM	1.18
SW684, 0.01372 µM	1.15
SW684, 0.04115 µM	1.15
SW684, 0.1235 µM	1.1
SW684, 0.3704 µM	1.13
SW684, 1.111 µM	1.12
SW684, 3.333 µM	1.09
SW684, 10 µM	1.07
SW872, 0.00017 µM	1.09
SW872, 0.00051 µM	1.06
SW872, 0.00152 µM	1.03
SW872, 0.00457 µM	1.04
SW872, 0.01372 µM	1.03
SW872, 0.04115 µM	0.988
SW872, 0.1235 µM	1
SW872, 0.3704 µM	0.963
SW872, 1.111 µM	0.9736
SW872, 3.333 µM	0.893
SW872, 10 µM	0.852
SYO-1, 0.00017 µM	1.01
SYO-1, 0.00051 µM	1.034
SYO-1, 0.00152 µM	0.971
SYO-1, 0.00457 µM	0.963
SYO-1, 0.01372 µM	0.921
SYO-1, 0.04115 µM	0.918
SYO-1, 0.1235 µM	0.817
SYO-1, 0.3704 µM	0.651
SYO-1, 1.111 µM	0.498
SYO-1, 3.333 µM	0.417
SYO-1, 10 µM	0.402
VA-ES-BJ, 0.00017 µM	1.05
VA-ES-BJ, 0.00051 µM	1.02
VA-ES-BJ, 0.00152 µM	1.03
VA-ES-BJ, 0.00457 µM	1
VA-ES-BJ, 0.01372 µM	0.997
VA-ES-BJ, 0.04115 µM	1.01
VA-ES-BJ, 0.1235 µM	0.996
VA-ES-BJ, 0.3704 µM	1.03
VA-ES-BJ, 1.111 µM	0.995
VA-ES-BJ, 3.333 µM	0.953
VA-ES-BJ, 10 µM	0.936
